According to US11466028B2, “Fused 1,4-oxazepines as BET protein degraders” (THE REGENTS OF THE UNIVERSITY OF MICHIGAN, priority 2016, dated 2022):
Where two headings read alike, the source gives them in different places.

Legend:
[1] = test system: RS4;11; assay: CellTiter-Glo cell growth inhibition, RS4;11; type: cell-based; conditions: Homo sapiens
Method in brief: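 Leukemia cells seeded at 2,000 cells/well with serially diluted compounds, 4 days at 37 °C, 5% CO2. Viability by CellTiter-Glo luminescence after 10-20 min at RT. IC50 calculated from the curves.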

[2] = test system: MV4; 11; assay: CellTiter-Glo cell viability, MV4;11 leukemia cell line; type: cell-based; conditions: Homo sapiens, Table 5
Procedure: (§1) Cell growth inhibitory activity of representative Compounds of the Disclosure was determined using the CellTiter-Glo® Luminescent Cell Viability Assay. Cells were seeded in 384-well white opaque cell culture plates at a density of 2,000 cells/well with serially diluted compounds and incubated at 37° C. in an atmosphere of 95% air and 5% CO2 for 4 days. Cell viability was determined using the CellTiter-Glo® Luminescent Cell Viability Assay Kit (Promega, Madison, Wis.) according to the manufacture's instruction. Briefly, a volume of CellTiter-Glo® Reagent equal to the volume of cell culture medium was added to each well, and then the plates were incubated at room temperature for 10-20 minutes. The luminescent signal was measured using a Tecan Infinite M1000 multimode microplate reader (Tecan, Morrisville, N.C.). The half maximal inhibitory concentration (IC50) was calculated using the GraphPad Prism 5 software (GraphPad Software, La Jolla, Calif.).
(§2) Cpd. Nos. 18 and 19 were tested in various leukemia cell lines using the CellTiter-Glo® Luminescent Cell Viability Assay as described in Example 35.

[3] = test system: MOLM16; assay: CellTiter-Glo cell viability, MOLM16 leukemia cell line; type: cell-based; conditions: Table 5
Procedure: as §1, §2

[4] = test system: HL60; assay: CellTiter-Glo cell viability, HL60 leukemia cell line; type: cell-based; conditions: Homo sapiens, HL-60, Table 5
Procedure: as §1, §2

[5] = test system: AML5; assay: CellTiter-Glo cell viability, AML5 leukemia cell line; type: cell-based; conditions: Table 5
Procedure: as §1, §2

[6] = test system: MonoMac6; assay: CellTiter-Glo cell viability, MonoMac6 leukemia cell line; type: cell-based; conditions: Homo sapiens, MONO-MAC-6, Table 5
Procedure: as §1, §2

[7] = test system: AML3; assay: CellTiter-Glo cell viability, AML3 leukemia cell line; type: cell-based; conditions: Table 5
Procedure: as §1, §2

[8] = test system: KG1; assay: CellTiter-Glo cell viability, KG1 leukemia cell line; type: cell-based; conditions: Homo sapiens, KG-1, Table 5
Procedure: as §1, §2

[9] = test system: MDA-MB-231; assay: WST-8 cell growth inhibition assay, MDA-MB-231; type: cell-based; conditions: Homo sapiens, WST-8, Table 6
Procedure: (§3) Cpd. Nos. 7 and 18 were tested in various triple-negative breast cancer cell lines using the WST-8 cell growth assay.

[10] = test system: MDA-MB-468; assay: WST-8 cell growth inhibition assay, MDA-MB-468; type: cell-based; conditions: Homo sapiens, WST-8, Table 6
Procedure: as §3

[11] = test system: MDA-MB-453; assay: WST-8 cell growth inhibition assay, MDA-MB-453; type: cell-based; conditions: Homo sapiens, WST-8, Table 6
Procedure: as §3

[12] = test system: MDA-MB-436; assay: WST-8 cell growth inhibition assay, MDA-MB-436; type: cell-based; conditions: Homo sapiens, WST-8, Table 6
Procedure: as §3

[13] = target: T1, BRD4 (Homo sapiens, UniProt O60885); assay: Western blot, degradation of BRD4 in RS4;11 cells; type: cell-based; conditions: 2.5 h, as compared to Compound A, FIG. 1
T1 construct: Collected cells were lysed in lysis buffer; endogenous in cells; host or cells: RS4;11 and MOLM-13 leukemia cells
Procedure: (§4) Cells were treated with compounds at the indicated concentrations for 2.5 h and 3 h, respectively, for RS4;11 (see FIG. 1) and MOLM-13 (see FIG. 2) cells. Compound A is ((S)-3-benzyl-6,9-dimethyl-2-((1-methyl-1H-pyrazol-4-yl)ethynyl)-4H,6H-thieno[2,3-e][1,2,4]triazolo[3,4-c][1,4]oxazepine). See Cpd. No. 85 of U.S. Appl. No. 62/295,271.
(§5) Collected cells were lysed in lysis buffer [1% CHAPS, 150 mM NaCl, 20 mM Tris-HCl, 1 mM. EDTA, 1 mM EGTA, and COMPLETE proteinase inhibitor (Roche)] for 30 minutes on ice. Protein concentrations were determined using the Bio-Rad Protein Assay Dye reagent. Whole tumor lysates (20 μg) were separated on a 4-20% Novex gels (Invitrogen). The separated proteins were transferred to a PVDF membrane (BIO-RAD) and the PVDF membrane was then blotted with 5% Blotting-Grade Blocker (BIO-RAD) for 1 hour at room temperature. The primary antibodies used were BRD4 rabbit polyclonal antibody [Bethyl Laboratories, Inc, cat #A301] and BRD2 antibody.
(§6) The BIO-RAD Clarity Western ECL Substrates (BIO-RAD) and HyBlot CL film (Denville) were used for signal development and detection using a SRX-101A tabletop processor (Konica Minolta).

[14] = target: T2, BRD2 (Homo sapiens, UniProt P25440); assay: Western blot, degradation of BRD2 in MOLM-13 cells; type: cell-based; conditions: 3 h, as compared to Compound A, FIG. 2
T2 construct: endogenous in cells; host or cells: RS4;11 and MOLM-13 leukemia cells
T2 sequence (P25440 whole entry): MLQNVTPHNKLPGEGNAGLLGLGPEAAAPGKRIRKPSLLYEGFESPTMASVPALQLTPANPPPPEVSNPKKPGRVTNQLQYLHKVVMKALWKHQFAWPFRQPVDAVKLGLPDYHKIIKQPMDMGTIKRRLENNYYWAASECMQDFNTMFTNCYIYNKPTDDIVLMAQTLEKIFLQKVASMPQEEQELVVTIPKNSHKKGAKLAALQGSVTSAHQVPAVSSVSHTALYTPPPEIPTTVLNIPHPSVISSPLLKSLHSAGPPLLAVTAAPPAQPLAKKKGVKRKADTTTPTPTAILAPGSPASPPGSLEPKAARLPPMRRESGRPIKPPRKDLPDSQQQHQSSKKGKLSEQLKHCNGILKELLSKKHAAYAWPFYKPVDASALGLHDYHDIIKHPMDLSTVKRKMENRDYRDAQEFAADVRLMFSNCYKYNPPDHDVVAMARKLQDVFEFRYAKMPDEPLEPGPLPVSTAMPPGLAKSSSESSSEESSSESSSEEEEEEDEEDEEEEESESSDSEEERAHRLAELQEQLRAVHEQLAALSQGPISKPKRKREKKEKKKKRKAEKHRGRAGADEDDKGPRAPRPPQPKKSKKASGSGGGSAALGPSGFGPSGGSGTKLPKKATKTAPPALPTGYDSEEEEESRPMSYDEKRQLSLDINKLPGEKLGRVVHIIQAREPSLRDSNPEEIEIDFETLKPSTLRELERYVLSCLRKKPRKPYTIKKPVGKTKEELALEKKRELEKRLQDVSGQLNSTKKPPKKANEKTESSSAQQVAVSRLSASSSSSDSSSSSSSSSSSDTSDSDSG
Procedure: as §4, §5, §6

[15] = target: T1, BRD4; assay: Western blot, degradation of BRD4 in MOLM-13 cells; type: cell-based; conditions: 3 h, as compared to Compound A, FIG. 2
Procedure: as §4, §5, §6

[16] = test system: WHIM24 breast cancer PDX; assay: WHIM24 breast cancer PDX model; type: in vivo; conditions: FIG. 5
Procedure: Representative Compounds of the Disclosure were tested in the RS4;11 and other xenograph models using similar techniques. […] No. 22 in the MDA-MB-231 TNBC model.

Cc1nnc2n1-c1sc(C#Cc3cnn(CCCC#Cc4cccc5c4CN(C4CCC(=O)NC4=O)C5=O)c3)c(Cc3ccccc3)c1CO[C@H]2C (stereo partly drawn) [Cpd. No. 18, 3-(4-(5-(4-(((S)-3-benzyl-6,9-dimethyl-4H,6H-thieno[2,3-e][1,2,4]triazolo[3,4-c][1,4]oxazepin-2-yl)ethynyl)-1H-pyrazol-1-yl)pent-1-yn-1-yl)-1-oxoisoindolin-2-yl) piperidine-2,6-dione]
IC50 ([1]; RS4-11, 96 h, 4 days, Table 4, read-out: RS-4, 11 IC50): 0.03 nM
IC50 ([1]; RS4-11, Table 5, read-out: IC50 (nM) RS4, 11): 0.004 ± 0.001 nM
IC50 [2]: 0.06 ± 0.006 nM
IC50 [3]: < 0.01 nM
IC50 [4]: 0.003 ± 0.001 nM
IC50 [5]: < 0.01 nM
IC50 [6]: 0.014 ± 0.004 nM
IC50 [7]: 0.03 ± 0.006 nM
IC50 [8]: 0.047 ± 0.02 nM
IC50 [9]: 0.76 ± 0.08 nM
IC50 [10]: 0.78 ± 0.06 nM
IC50 [11]: 0.25 ± 0.04 nM
IC50 [12]: 1.52 ± 0.21 nM
degradation of BRD4 protein (Western blot) [13]: induce degradation
degradation of BRD2 protein (Western blot) [14]: induce degradation
degradation of BRD4 protein (Western blot) [15]: induce degradation
tumor regression in the WHIM24 breast cancer PDX model [16]: induces tumor regression
